Laboratory results: the supplement of paper PMC9663587

Columns and labels:
Assay in all cases: area over the GR curve, 72 h; higher = more effect;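 also: Dye Drop or Deep Dye Drop imaging of viable cells in 384-well plates (Hoechst nuclei, LIVE/DEAD dye), nine half-log doses, GR normalized to DMSO controls and time-zero plates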
BT549 = tested on: BT549
CAL120 = tested on: CAL120
CAL51 = tested on: CAL51
EVSAT = tested on: EVSAT
HCC1937 = tested on: HCC1937
MDAMB436 = tested on: MDAMB436
SKBR3 = tested on: SKBR3
SUM1315 = tested on: SUM1315
SUM159 = tested on: SUM159
SUM44PE = tested on: SUM44PE
UACC893 = tested on: UACC893
ZR751 = tested on: ZR751

Row | SMILES | area over the GR curve (BT549) [GR] | area over the GR curve (CAL120) [GR] | area over the GR curve (CAL51) [GR] | area over the GR curve (EVSAT) [GR] | area over the GR curve (HCC1937) [GR] | area over the GR curve (MDAMB436) [GR] | area over the GR curve (SKBR3) [GR] | area over the GR curve (SUM1315) [GR] | area over the GR curve (SUM159) [GR] | area over the GR curve (SUM44PE) [GR] | area over the GR curve (UACC893) [GR] | area over the GR curve (ZR751) [GR]
1 | COc1cc(N2CCN(C)CC2)ccc1Nc1ncc2c(n1)N(C)c1ccccc1C(=O)N2CC(F)(F)F [FMF-03-146-1] | 0.0127 | -0.0113 | 0.0396 | -0.0034 | 0.0547 | -0.005 | 0.0465 | 0.0401 | 0.0317 | 0.016 | -0.0085 | 0.0552
2 | CN1CC[C@H](c2c(O)cc(O)c3c(=O)cc(-c4ccccc4Cl)oc23)[C@H](O)C1 [Flavopiridol] (max 1 µM) | 0.257 | 0.229 | 0.242 | 0.157 | 0.238 | 0.224 | 0.342 | 0.416 | 0.256 | 0.406 | 0.321 | 0.152
3 | CC(C)n1nc(-c2ccc3oc(N)nc3c2)c2c(N)ncnc21 [INK128/MLN0128] (max 3.162 µM) | 0.534 | 0.602 | 0.553 | 0.691 | 0.369 | 0.429 | 0.971 | 0.647 | 0.356 | 0.781 | 0.745 | 0.679
4 | CC(C)NC[C@@H](C(=O)N1CCN(c2ncnc3c2[C@H](C)C[C@H]3O)CC1)c1ccc(Cl)cc1 [Ipatasertib/GDC0068] (max 10 µM) | 0.173 | 0.13 | 0.224 | 0.463 | 0.156 | 0.104 | 0.152 | 0.124 | 0.0758 | 0.412 | 0.529 | 0.0518
5 | CN(C)C(=O)c1cc2cnc(Nc3ccc(N4CCNCC4)cn3)nc2n1C1CCCC1 [LEE011/Ribociclib] (max 10 µM) | 0.0102 | 0.265 | 0.299 | 0.12 | 0.0156 | -0.012 | 0.34 | 0.35 | 0.244 | 0.357 | 0.53 | 0.258
6 | CCNC(=O)c1noc(-c2cc(C(C)C)c(O)cc2O)c1-c1ccc(CN2CCOCC2)cc1 [Luminespib/NVP-AUY922] (max 1 µM) | 0.612 | 0.693 | 0.704 | 0.68 | 0.548 | 0.633 | 0.714 | 0.606 | 0.53 | 0.804 | 1.07 | 0.362
7 | CCOc1cc2ncc(C#N)c(Nc3ccc(OCc4ccccn4)c(Cl)c3)c2cc1NC(=O)/C=C/CN(C)C [Neratinib/HKI272] (max 3.162 µM) | 0.0779 | 0.224 | 0.091 | 0.0683 | 0.171 | 0.188 | 0.891 | 0.364 | 0.101 | 0.568 | 1.17 | 0.0964
8 | O=C(c1cc(Cc2n[nH]c(=O)c3ccccc23)ccc1F)N1CCN(C(=O)C2CC2)CC1 [Olaparib/AZD2281] (max 10 µM) | 0.0657 | 0.143 | 0.116 | 0.0599 | 0.0584 | 0.305 | 0.04 | 0.245 | 0.0296 | -0.0366 | 0.0342 | 0.0567
9 | CC(=O)O[C@H]1C(=O)[C@@]2(C)[C@H]([C@H](OC(=O)c3ccccc3)[C@]3(O)C[C@H](OC(=O)[C@H](O)[C@@H](NC(=O)c4ccccc4)c4ccccc4)C(C)=C1C3(C)C)[C@]1(OC(C)=O)CO[C@@H]1C[C@@H]2O [Paclitaxel] (max 1 µM) | 0.699 | 0.746 | 0.669 | 0.844 | 0.658 | 0.708 | 0.89 | 0.793 | 0.65 | 0.953 | 0.905 | 0.511
10 | CS(=O)(=O)N1CCN(Cc2cc3nc(-c4cccc5[nH]ncc45)nc(N4CCOCC4)c3s2)CC1 [Pictilisib/GDC0941] (max 10 µM) | 0.208 | 0.255 | 0.19 | 0.387 | 0.211 | 0.133 | 0.512 | 0.371 | 0.129 | 0.392 | 0.323 | 0.324
11 | O=C1NC(=NCc2cccs2)SC1=Cc1ccc2ncccc2c1 [R0-3306] (max 10 µM) | 0.12 | 0.0133 | 0.067 | 0.115 | 0.143 | 0.0623 | 0.163 | 0.195 | 0.0665 | 0.276 | 0.0158 | 0.0473
12 | CNCc1ccc(-c2[nH]c3cc(F)cc4c3c2CCNC4=O)cc1 [Rucaparib] (max 10 µM) | 0.0437 | 0.125 | 0.0888 | 0.0455 | 0.0989 | 0.399 | 0.119 | 0.371 | 0.0948 | 0.0038 | 0.164 | 0.0837
13 | CC1(N)CCN(c2cnc(-c3cccc(Cl)c3Cl)c(N)n2)CC1 [SHP099] (max 10 µM) | 0.0349 | -0.0004 | 0.03 | -0.0008 | 0.0653 | -0.0036 | 0.0253 | 0.121 | 0.0503 | 0.075 | -0.0199 | 0.0364
14 | CN1CCN(CCOc2cc(OC3CCOCC3)c3c(Nc4c(Cl)ccc5c4OCO5)ncnc3c2)CC1 [Saracatinib/AZD0530] (max 10 µM) | 0.0348 | 0.173 | 0.227 | 0.203 | 0.039 | 0.0385 | -0.0324 | 0.244 | 0.0365 | 0.112 | 0.11 | 0.163
15 | Cc1cc(C(C)Nc2ccccc2)c2nc(N3CCOCC3)cc(=O)n2c1 (stereo not given) [TGX221] (max 10 µM) | 0.0568 | -0.0168 | -0.0117 | 0.254 | 0.0193 | -0.0103 | -0.0125 | 0.136 | -0.0235 | -0.155 | -0.111 | 0.354
16 | CN(C)C/C=C/C(=O)Nc1ccc(C(=O)Nc2cccc(Nc3ncc(Cl)c(-c4c[nH]c5ccccc45)n3)c2)cc1 [THZ1] (max 1 µM) | 0.381 | 0.337 | 0.161 | 0.251 | 0.348 | 0.196 | 0.673 | 0.229 | 0.161 | 0.706 | 0.542 | 0.162
17 | CN(C)C/C=C/C(=O)Nc1ccc(C(=O)N2CCC[C@@H](Nc3ncc(Cl)c(-c4c[nH]c5ccccc45)n3)C2)cc1 [THZ531] (max 1 µM) | 0.174 | 0.21 | 0.0896 | 0.0912 | 0.176 | 0.158 | 0.545 | 0.148 | 0.0413 | 0.177 | 0.437 | 0.124
18 | CN(C)C/C=C/C(=O)Nc1ccc(C(=O)Nc2cccc(Nc3cc(-c4c[nH]c5ccccc45)ncn3)c2)cc1 [THZ-P1-2] (max 10 µM) | 0.124 | 0.124 | 0.0155 | 0.127 | 0.288 | 0.272 | 0.154 | 0.0029 | 0.127 | 0.619 | 0.573 | 0.0386
19 | Cc1nc(-c2cn3c(n2)-c2ccc(-c4cnn(C(C)(C)C(N)=O)c4)cc2OCC3)n(C(C)C)n1 [Taselisib/GDC0032] (max 10 µM) | 0.223 | 0.235 | 0.546 | 0.412 | 0.277 | 0.173 | 0.807 | 0.397 | 0.399 | 1.02 | 1.43 | 0.393
20 | O=C1NC(=O)[C@@H](c2cn3c4c(cccc24)CCC3)[C@@H]1c1c[nH]c2ccccc12 [Tivantinib/ARQ197] (max 10 µM) | 0.344 | 0.465 | 0.359 | 0.443 | 0.29 | 0.421 | 0.479 | 0.475 | 0.403 | 0.762 | 0.405 | 0.255
21 | Nc1ccc(-c2ccc3ncc4ccc(=O)n(-c5cccc(C(F)(F)F)c5)c4c3c2)cn1 [Torin2] (max 1 µM) | 0.49 | 0.487 | 0.456 | 0.511 | 0.291 | 0.337 | 0.734 | 0.486 | 0.295 | 0.737 | 0.698 | 0.438
22 | CC[C@@H]1C(=O)N(C)c2cnc(Nc3ccc(C(=O)N[C@H]4CC[C@H](N5CCN(CC6CC6)CC5)CC4)cc3OC)nc2N1C(C)C [Volasertib/BI6727] (max 1 µM) | 0.568 | 0.676 | 0.679 | 0.666 | 0.497 | 0.662 | 0.694 | 0.664 | 0.392 | 0.623 | 0.813 | 0.263
23 | O=C(CCCCCCC(=O)Nc1ccccc1)NO [Vorinostat] (max 10 µM) | 0.189 | 0.241 | 0.186 | 0.19 | 0.193 | 0.163 | 0.345 | 0.166 | 0.148 | 0.181 | 0.161 | 0.0343
24 | C=CC(=O)Nc1ccc(C(=O)Nc2[nH]nc3c2CN(C(=O)N[C@H](CN(C)C)c2ccccc2)C3(C)C)cc1 [YKL-5-124] (max 10 µM) | 0.869 | 0.591 | 0.655 | 0.911 | 0.861 | 0.584 | 0.965 | 0.703 | 0.857 | 1.16 | 0.765 | 0.717
25 | CN1CCN(C(=O)c2ccc3cc(CCNc4ncnc5ccc(C#N)cc45)ccc3c2)CC1 [senexin b] (max 10 µM) | 0.181 | 0.131 | 0.119 | 0.0803 | 0.286 | 0.0859 | 0.172 | 0.175 | 0.0855 | 0.369 | 0.185 | 0.05
